Measurements reported in patent US9274101B2 (BIOLOG, Inc., priority 2001, dated 2016).
In brackets after ≈: the same amount, converted by molar mass. Read-outs that look alike come from different tables or passages of the source. Where a SMILES comes first, the peptide text is derived from it. Bridges are numbered along the chain shown (N, C = ends). [ ]: non-standard residue; d: D form. The star is where a group is joined. Ileψ(thiazoline)Cys = CC[C@H](C)[C@H](N)C1=N[C@H](C(=O)*)CS1; dOrn = NCCC[C@@H](N)C(=O)O

What was measured:
[1] = system: TK-1 cells; assay: TK-1 cells in PM1 and PM2 plates, with or without 0.5 mM sodium pyruvate; type: cell-based, mouse
Experimental: In this Example, methods for testing a murine T lymphoma cells (Butcher et al., Eur. J. Immunol., 10:556-561 [1980]), for their ability to use multiple carbon sources are described. The methods used to culture the TK-1 lymphoma cell line were similar to those used to culture HL-60 cells, as described in Example 27.
TK-1 cells were grown in Falcon tissue culture flasks with vented tops. Culture medium was RPMI 1640 medium (Invitrogen 11875) with 4.5 g/L glucose, 2 mM L-glutamine, 1 mM sodium pyruvate, 0.1 mM nonessential amino acids (NEAA), 0.05 mM 2-mercaptoethanol (2ME), 2 g/L sodium bicarbonate, 5 mg/L phenol red, 50 U/mL penicillin, 50 μg/mL streptomycin, and 10% (v/v) heat inactivated fetal bovine serum (HI FBS, Invitrogen 16140). The cells were seeded at 3×10^5/mL, subcultured at 3 days after initiation of culture to 10^6 cells/mL and used 24 hours later. During all incubations, the cells were kept in an atmosphere of 5% CO2, 90-100% humidity, and 37° C.
A viable cell count was obtained by trypan blue exclusion and an appropriate volume of the cell suspension was placed in a polypropylene centrifuge tube. The cells were washed in DPBS and then resuspended to two-thirds the final volume needed in Dulbecco ? s Modified Eagle ? s Medium (DME, Sigma D5030) with the supplements listed in Table 17, as well as 2-ME, sodium pyruvate and NEAA, and including 10% HI FBS, but without glucose, L-glutamine, sodium pyruvate, and phenol red. This medium is termed DME-RTK. An aliquot was counted by trypan blue exclusion and the cell density was adjusted to 1×10^6/mL. Fifty μL of DME-RTK were added to each well of the appropriate number of half area, 96-well plates (PM1 and PM2 MICROPLATE testing plates). The cells were divided into two lots and one lot received a 1/100 dilution of 100 mM sodium pyruvate (final concentration, 0.5 mM). Cells from both lots were plated at a final cell density of 5×10^4/well (50 μL/well). For each plate containing chemicals and cells, a second, control plate containing only chemicals was prepared. Plates were incubated at 5% CO2, 90-100% humidity, and 37° C. for 1 hour prior to addition of the MTS/MPMS colorimetric reagent (5 μL/well). The color formed in each well 24 hours after addition of the colorimetric reagent, was measured with a plate reader at 490 nm with a reference wavelength of 650 nm. OD values from the control plate were subtracted from the OD values obtained with cells prior to normalizing the data to % negative control.

[2] = system: ten strains of E. coli; type: cell-based, Escherichia coli; note: key: +: indicates that the organism tested was capable of utilizing the carbon source listed; −: indicates that the organism tested was not capable of utilizing the carbon source listed; indicates weak positive reactions
[3] = system: IMR-90 cells; assay: Testing of IMR-90 cells in PM1a testing plates; type: cell-based; settings: for color of well: 24 hours of incubation
Experimental: IMR-90 cells were cultured in DMEM in 150 mm diameter petri dishes to near confluence under suitable conditions (e.g., 5% CO2, at 37° C.). The cells were harvested from 19 petri dishes, using the standard trypsin-EDTA procedure to detach the cells (i.e., 5 minute treatment with trypsin-EDTA), pooled and centrifuged at 1000×g for 5 minutes at 2-8° C., and resuspended in HBSS without phenol red. The cells were again centrifuged and resuspended in 24 ml inoculating fluid (IF-h). The cell density as determined by measurement using a Coulter Counter was about 3,000,000 cells/ml. Two-fold serial dilutions were prepared using prewarmed inoculating fluid, by mixing 12 ml of cell suspension with 12 ml IF-h, to produce six suspensions having 3,000,000 cells/ml (undiluted), 1,500,000 cells/ml, 750,000 cells/ml, 375,000 cells/ml, 187,500 cells/ml, and 93,750 cells/ml. A “no cell” control was also prepared, using 12 ml inoculating fluid. Each of the cell suspensions was then immediately inoculated into a PM1a PHENOTYPE MICROARRAY testing panel (Biolog), with about 100 μl of suspension added per well.
After approximately 4.5 hours of incubation at 37° C. in a CO2 incubator, the PHENOTYPE MICROARRAY testing panels were visually examined. […] The amount of background pink color was somewhat varied, depending upon the cell concentration. At the highest cell densities, there was a light pink color in all of the wells.

[4] = system: HL-60 cells; assay: HL-60 cells in PM1 and PM2 plates, MTS/MPMS color, % negative control; type: cell-based, human; settings: label = PM1 well (row+column); MTS/MPMS color after 24 hour, OD 490 nm
[5] = system: Staphylococcus aureus (ATCC #29213); assay: MIC determination in MICROPLATE testing plates, saline vs GELRITE inoculant; type: cell-based; settings: ATCC29213, 18 h, SF-P plates with resazurin, 35° C.
Experimental: All three antimicrobials were obtained from Sigma. […] Kanamycin and tetracycline were dissolved in sterile water.

[6] = system: E. coli MG1655; type: cell-based, Escherichia coli
[7] = system: E. coli MG1655; assay: PM kinetic profiles of antimicrobials, S-O-R scoring and dendrogram; type: cell-based, Escherichia coli
[8] = system: E. coli (MG1655); assay: Sensitivity in ES1, ES2, ES3 MICROPLATE panels in the presence of vancomycin or sulfamethoxazole (synergy/antagonism); type: cell-based, Escherichia coli
[9] = in the presence of 0.5 mM sodium pyruvate
[10] = approximately 4.5 hours at 37° C.
[11] = 1× level of each antimicrobial, 7 PMs, 48 hours
[12] = in the presence of 10 μg/ml vancomycin
[13] = in the presence of 235 μg/ml sulfamethoxazole

`O=C(O)c1ccc(O)cc1` [4-hydroxy-benzoic acid] was tested, and the “response of TK-1 cells” value [1, 9] was “gained responses”.
`O=C[C@@H](O)[C@@H](O)[C@H](O)[C@H](O)CO` [D-mannose] was tested, and the carbon source utilization [2] was “+”, the color of well [3] was “distinctly darker clump of red cells” and the “cellular morphology (microscopic)” value [3, 10] was “the cells looked healthy”.
For `O=C(CO)[C@H](O)[C@H](O)[C@H](O)CO` [D-psicose], the carbon source utilization [2] was “+”, the “cellular morphology (microscopic)” value [3, 10] was “the cells looked healthy” and the “color of well (carbon source oxidation)” value [3, 10] was “distinctly more pink than any other well”.
For `O=C(O)CC(CC(=O)O)C(=O)O` [G2], the “Response of HL-60 Cells to the Carbon Sources of PM1” value [4] was 96 % of negative control.
With `NC[C@H]1O[C@H](O[C@H]2[C@H](O)[C@@H](O[C@H]3O[C@H](CO)[C@@H](O)[C@H](N)[C@H]3O)[C@H](N)C[C@@H]2N)[C@H](O)[C@@H](O)[C@@H]1O` [Kanamycin, kanamycin] the MIC ([5]; diluent GELRITE (0.4%)) was 16 to 32 µg/mL (≈ 33 to 66 µM) and the MIC ([5]; diluent Saline) was 16 to 32 µg/mL (≈ 33 to 66 µM).
For `N[C@@H](CCO)C(=O)O` [L-homoserine], the “suitability as nitrogen source (growth, purple color)” value (“suitability as nitrogen source” for short) [6] was “not suitable” and the “response of TK-1 cells” value [1, 9] was “lost responses”.
In the case of `NCCC[C@H](N)C(=O)O` [L-ornithine], the “suitability as nitrogen source” value [6] is reported as “not suitable” and the “response of TK-1 cells” value [1, 9] is reported as “lost responses”.
In the case of `N[C@@H](Cc1ccccc1)C(=O)O` [L-phenylalanine], the “suitability as nitrogen source” value [6] is reported as “not suitable” and the “response of TK-1 cells” value [1, 9] is reported as “gained responses”.
With `COC(=O)C(C)=O` [Methyl pyruvate] the carbon source utilization [2] was “+” and the “cellular morphology (microscopic)” value [3, 10] was “the cells were rounded up and appeared to be stressed”.
For `CN(C)[C@@H]1C(O)=C(C(N)=O)C(=O)[C@@]2(O)C(O)=C3C(=O)c4c(O)cccc4[C@@](C)(O)[C@H]3C[C@@H]12` [Tetracycline, tetracycline], the MIC ([5]; diluent GELRITE (0.4%)) was 0.25 to 1 µg/mL (≈ 0.563 to 2.25 µM) and the MIC ([5]; diluent Saline) was 0.25 to 2 µg/mL (≈ 0.563 to 4.5 µM).
With `OC[C@H]1O[C@@H](Oc2ccc(O)cc2)[C@H](O)[C@@H](O)[C@@H]1O` [arbutin] the “response of TK-1 cells” value [1, 9] was “gained responses”.
For `CC[C@H](C)[C@H](N)C1=N[C@H](C(=O)N[C@@H](CC(C)C)C(=O)N[C@H](CCC(=O)O)C(=O)N[C@H](C(=O)N[C@H]2CCCCNC(=O)[C@H](CC(N)=O)NC(=O)[C@@H](CC(=O)O)NC(=O)[C@H](Cc3cnc[nH]3)NC(=O)[C@@H](Cc3ccccc3)NC(=O)[C@H]([C@@H](C)CC)NC(=O)[C@@H](CCCN)NC2=O)[C@@H](C)CC)CS1` [bacitracin] ({Ileψ(thiazoline)Cys}-L[dE]IK[dOrn]I[dF]H[dD]N; lactam 4-C), the “position in dendrogram of PM response profiles (FIG. 9)” value (“position in dendrogram” for short) [7, 11] was “cluster”.
For `CO[C@@]1(NC(=O)Cc2cccs2)C(=O)N2C(C(=O)O)=C(COC(N)=O)CS[C@@H]21` [cefoxitin], the “change of sensitivity to the panel compound” value (shortened to “change of sensitivity”) [8, 12] was “increased sensitivity”.
In the case of `NC(=O)c1cc[n+](CC2=C(C(=O)O)N3C(=O)[C@@H](NC(=O)[C@@H](c4ccccc4)S(=O)(=O)[O-])[C@H]3SC2)cc1` [cefsulodin], the “change of sensitivity” value [8, 13] is reported as “increased sensitivity”.
With `O=C(Cc1cccs1)N[C@@H]1C(=O)N2C(C(=O)[O-])=C(C[n+]3ccccc3)CS[C@H]12` [cephaloridine] the “change of sensitivity” value [8, 13] was “increased sensitivity”.
`CC(=O)OCC1=C(C(=O)O)N2C(=O)[C@@H](NC(=O)Cc3cccs3)[C@H]2SC1` [cephalothin] was tested, and the “change of sensitivity” value [8, 12] was “increased sensitivity”, the “change of sensitivity” value [8, 13] was “increased sensitivity” and the “position in dendrogram” value [7, 11] was “cluster”.
With `C/C=C/C/C=C/CCC(=O)[C@H]1O[C@H]1C(N)=O` [cerulenin] the “position in dendrogram” value [7, 11] was “more closely resembled the multiple target antimicrobials”.
For `[Cl][Cr]([Cl])[Cl]` [chromium chloride], the “change of sensitivity” value [8] was “increased sensitivity”.
`[Cl][Co][Cl]` [cobalt chloride] was tested, and the “change of sensitivity” value [8] was “increased sensitivity”.
For `CC(=O)O[C@H]1C[C@@]2(C)[C@@H](C[C@@H](O)[C@H]3[C@@]4(C)CC[C@@H](O)[C@@H](C)[C@@H]4CC[C@@]32C)/C1=C(\CCC=C(C)C)C(=O)O` [fusidic acid], the “change of sensitivity” value [8, 12] was “increased sensitivity”.
`CCn1cc(C(=O)O)c(=O)c2ccc(C)nc21` [nalidixic acid] was tested, and the “change of sensitivity” value [8] was “increased sensitivity” and the “position in dendrogram” value [7] was “did not cluster with the other two DNA gyrase inhibiting chemicals”.
In the case of `[Cl][Ni][Cl]` [nickel chloride], the “change of sensitivity” value [8] is reported as “increased sensitivity”.
For `CO[C@@H]1[C@@H](OC(N)=O)[C@@H](O)[C@H](Oc2ccc3c(O)c(NC(=O)c4ccc(O)c(CC=C(C)C)c4)c(=O)oc3c2C)OC1(C)C` [novobiocin], the “change of sensitivity” value [8] was “increased resistance” and the “change of sensitivity” value [8, 12] was “increased sensitivity”.
For `CCn1cc(C(=O)O)c(=O)c2cc3c(cc21)OCO3` [oxolinic acid], the “position in dendrogram” value [7, 11] was “clustered”.
For `C[C@@H]1O[C@@H]1P(=O)(O)O` [phosphomycin], the “position in dendrogram” value [7, 11] was “cluster”.
With `O=C(O)CCCCCCCCC(=O)O` [sebacic acid] the “response of TK-1 cells” value [1, 9] was “gained responses”.
In the case of `O=C([O-])CC(O)C(=O)[O-].[Na+].[Na+]` (stereo not shown) [sodium malate], the “cellular morphology (microscopic)” value [3] is reported as “the cells were rounded up and appeared to be stressed”.
With `[H]/N=C(/N)N[C@H]1[C@H](O)[C@@H](O)[C@H](O[C@@H]2O[C@@H](C)[C@](O)(C=O)[C@H]2O[C@@H]2O[C@@H](CO)[C@H](O)[C@@H](O)[C@@H]2NC)[C@@H](N/C(N)=N\[H])[C@@H]1O` [streptomycin] the “position in dendrogram” value [7, 11] was “cluster”.
For `Nc1ccc(S(=O)(=O)Nc2nccs2)cc1` [sulfathiazole], the “position in dendrogram” value [7, 11] was “more closely resembled the multiple target antimicrobials”.
For `COc1cc(Cc2cnc(N)nc2N)cc(OC)c1OC` [trimethoprim], the “change of sensitivity” value [8, 12] was “increased sensitivity” and the “change of sensitivity” value [8, 13] was “increased sensitivity”.
In the case of `OC[C@H]1O[C@@H](O[C@H]2[C@H](O)[C@@H](O)[C@@H](O)O[C@@H]2CO)[C@H](O)[C@@H](O)[C@H]1O` [α-D-lactose], the carbon source utilization [2] is reported as “+” and the color of well [3] is reported as “distinctly darker clump of red cells”.
In the case of `CO[C@@H]1OC[C@@H](O)[C@H](O)[C@H]1O` [β-methyl xyloside], the “response of TK-1 cells” value [1, 9] is reported as “gained responses”.
In the case of `O=C(O)CCCO` [γ-hydroxybutyric acid], the “response of TK-1 cells” value [1] is reported as “lost responses”.
In the case of coumermycin, the “position in dendrogram” value [7] is reported as “clustered”.
In the case of pectin, the “response of TK-1 cells” value [1, 9] is reported as “gained responses”.
For polymyxin B, the “position in dendrogram” value [7] was “more closely resembled the multiple target antimicrobials”.
